target: NAALADase (Homo sapiens, UniProt Q04609); test: In vitro inhibition of NAALADase activity; format: biochemical; details: IC50
Sequence (Q04609 whole entry): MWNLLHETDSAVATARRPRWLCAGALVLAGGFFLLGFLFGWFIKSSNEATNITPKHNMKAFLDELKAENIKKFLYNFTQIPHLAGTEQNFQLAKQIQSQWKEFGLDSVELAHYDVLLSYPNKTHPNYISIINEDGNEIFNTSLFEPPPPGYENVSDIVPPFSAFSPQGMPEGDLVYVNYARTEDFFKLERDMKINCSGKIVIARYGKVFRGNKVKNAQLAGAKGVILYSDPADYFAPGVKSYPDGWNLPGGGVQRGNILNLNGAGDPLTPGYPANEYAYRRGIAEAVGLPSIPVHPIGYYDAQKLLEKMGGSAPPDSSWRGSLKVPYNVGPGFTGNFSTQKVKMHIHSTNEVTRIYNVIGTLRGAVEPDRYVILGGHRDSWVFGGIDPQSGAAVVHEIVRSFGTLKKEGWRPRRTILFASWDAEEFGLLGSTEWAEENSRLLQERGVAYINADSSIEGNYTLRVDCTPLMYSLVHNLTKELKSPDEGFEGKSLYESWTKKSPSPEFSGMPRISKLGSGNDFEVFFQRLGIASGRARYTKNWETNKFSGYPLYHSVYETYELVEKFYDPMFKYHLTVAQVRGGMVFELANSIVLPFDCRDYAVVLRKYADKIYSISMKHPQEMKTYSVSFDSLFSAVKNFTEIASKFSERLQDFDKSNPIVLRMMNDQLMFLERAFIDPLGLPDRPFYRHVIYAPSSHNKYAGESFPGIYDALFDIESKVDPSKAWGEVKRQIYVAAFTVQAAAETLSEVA

SMILES	IC50 [nM]
O=C(NO)c1ccccc1O [2,N-Dihydroxy-benzamide]	≥ 100000

same assay, conditions: read-out: IC50

SMILES	IC50 [nM]
O=C(O)c1ccc(CNC(=O)c2cc(C(=O)O)cc(C(=O)NO)c2)cc1	2780
O=C(CSCc1ccc(OCc2ccc(C(=O)O)cc2)c(C(=O)O)c1)NO	1330
O=C(CSCCc1cccc(OCc2ccc(C(=O)O)cc2)c1C(=O)O)NO	14000
O=C(NO)c1ccc(C(=O)c2ccccc2C(=O)NO)cc1	≥ 100000
O=C(O)c1cccc(CC(CCCS)C(=O)O)c1 (single isomer, unassigned; (+)) [(+)-3-carboxy-alpha-(3-mercaptopropyl)-benzenepropanoic acid]	7
O=C(O)c1cccc(CC(CCCS)C(=O)O)c1 (single isomer, unassigned; (-)) [(−)-3-carboxy-alpha-(3-mercaptopropyl)-benzenepropanoic acid]	33.3
O=C(O)C(CCCS)Cc1c(F)c(F)c(F)c(F)c1F (stereo not drawn) [2,3,4,5,6-pentafluoro-alpha-(3-mercaptopropyl)-benzenepropanoic acid]	1000
O=C(O)c1ccccc1OC(CCCS)C(=O)O (stereo not shown) [2-(1-carboxy-4-mercaptobutoxy)-benzoic acid]	4600
O=C(O)c1ccc(-c2ccccc2)c(CC(CCCS)C(=O)O)c1 (stereo not shown) [2-(2-carboxy-5-mercaptopentyl)-[1,1′-biphenyl]-4-carboxylic acid]	19
O=C(O)c1cc(OCc2ccccc2)ccc1CCS [2-(2-mercaptoethyl)-5-(phenylmethoxy)-benzoic acid]	380
O=C(O)c1c(CCS)cccc1OCCc1ccccc1 [2-(2-mercaptoethyl)-6-(2-phenylethoxy)-benzoic acid]	266
O=C(O)c1c(CCS)cccc1OCc1ccccc1 [2-(2-mercaptoethyl)-6-(phenylmethoxy)-benzoic acid]	11.5
O=C(O)c1c(CCS)cccc1Oc1ccccc1 [2-(2-mercaptoethyl)-6-phenoxy-benzoic acid]	1150
O=C(O)c1ccccc1CCS [2-(2-mercaptoethyl)-benzoic acid]	613
CC(C)(C)CCOc1cccc(CCS)c1C(=O)O [2-(3,3-dimethylbutoxy)-6-(2-mercaptoethyl)-benzoic acid]	2580
COc1cc(OC)cc(OC(CCCS)C(=O)O)c1 (stereo not shown) [2-(3,5-dimethoxyphenoxy)-5-mercapto-pentanoic acid]	16100
O=C(O)CCC(CCCSCC(=O)NO)C(=O)O (stereo not shown) [2-(3-Hydroxycarbamoyl-methylsulfanylpropyl)-pentanedioic acid]	3000
CC(=O)c1cccc(OC(CCCS)C(=O)O)c1 (stereo not shown) [2-(3-acetylphenoxy)-5-mercapto-pentanoic acid]	2900
O=C(O)C(CCCS)Oc1cccc(O)c1 (stereo not shown) [2-(3-hydroxyphenoxy)-5-mercapto-pentanoic acid]	846
CC(=O)c1ccc(OC(CCCS)C(=O)O)cc1 (stereo not shown) [2-(4-acetylphenoxy)-5-mercaptopentanoic acid]	29.8
NC(=O)c1ccccc1CC(CCCS)C(=O)O (stereo not drawn) [2-(aminocarbonyl)-alpha-(3-mercaptopropyl)-benzenepropanoic acid]	3950
O=C(O)COc1cccc(CCS)c1C(=O)O [2-(carboxymethoxy)-6-(2-mercaptoethyl)-benzoic acid]	215
O=C(O)c1ccccc1CS [2-(mercaptomethyl)-benzoic acid]	≥ 100000
O=C(CSCCCC(Cc1cccc(-c2ccccc2)c1)C(=O)O)NO (stereo not shown) [2-Biphenyl-3-ylmethyl-5-hydroxy-carbamoylmethylsulfanyl-pentanoic acid]	4210
COC(=O)c1ccccc1OCC(=O)NO [2-Hydroxycarbamoylmethoxy-benzoic acid methyl ester]	≥ 100000
O=C(COc1ccccc1C(=O)O)NO [2-Hydroxycarbamoylmethoxy-benzoic acid]	≥ 100000
CC(=O)Nc1cccc(OC(CCCS)C(=O)O)c1 (stereo not shown) [2-[3-(acetylamino)phenoxy]-5-mercapto-pentanoic acid]	27700

— patent publication US20040186081A1, “Naaladase inhibitors for treating opioid tolerance” (Guilford Pharmaceuticals Inc., priority 2003, published 2004)
